Molecules are shown by their SMILES.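 Following 48 hours of exposure in 96-well plates, responses at five concentrations were used to interpolate endpoints linearly. GI50: concentration for 50% inhibition of growth. TGI denotes the concentration required for complete inhibition of growth.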

Some test systems named below: SN12C renal; UO-31 renal; A498 renal; OVCAR-3 ovarian; NCI-H522 lung; EKVX NSCLC; CCRF-CEM leukemia; SW-620 colon; HCT-15 colon; COLO 205 colon.
Test in all cases: growth of human tumour cells (NCI), 48 h

Regarding `Cn1c(=O)nc2n(-c3cccc(Br)c3)c3ccccc3nc-2c1=O`, the TGI in the assay on SN12C renal came to 17.1 µM; in the assay with UO-31 renal, 26.3 µM; in the assay with A498 renal it was 22.1 µM; with OVCAR-3 ovarian, 5.94 µM; in the assay with NCI-H522 lung, 20.1 µM; in the assay on EKVX NSCLC it was 13.3 µM. The TGI in the assay on CCRF-CEM leukemia came to 26.9 µM; in the assay with SW-620 colon, 8.53 µM; with HCT-15 colon it was 15.1 µM; in the assay on COLO 205 colon it was 9.64 µM.
In the case of `C/C(=N/Nc1nc2ccccc2n1C)c1ccccn1`, the GI50 with SN12C renal is 0.106 µM; in the assay with UO-31 renal it was 0.0672 µM; in the assay with A498 renal it was 0.123 µM; in the assay on OVCAR-3 ovarian it was less than 0.0153 µM; with NCI-H522 lung, 0.223 µM; with EKVX NSCLC, 0.0418 µM. For the same compound, the GI50 in the assay with CCRF-CEM leukemia is 0.0252 µM; with SW-620 colon, 0.0429 µM; with HCT-15 colon, 0.0171 µM; with COLO 205 colon, 0.0254 µM. The TGI in the assay on SN12C renal was 23 µM; with UO-31 renal it was 1.59 µM; in the assay with A498 renal it was 0.81 µM; with OVCAR-3 ovarian, 14.1 µM; in the assay on NCI-H522 lung, 9.34 µM; with EKVX NSCLC, 13.5 µM. The figures for the TGI with SW-620 colon, in the assay on HCT-15 colon and with COLO 205 colon were 21.8 µM, 27.9 µM and 10.9 µM, respectively.
For the compound `N#CC(C(=O)CCC(=O)C(C#N)c1ccccc1)c1ccccc1` (stereo not drawn), the TGI with SN12C renal, in the assay with UO-31 renal, with A498 renal, with OVCAR-3 ovarian, with NCI-H522 lung and with EKVX NSCLC was more than 100 µM throughout. Further, the TGI in the assay with CCRF-CEM leukemia, with SW-620 colon, in the assay on HCT-15 colon and in the assay on COLO 205 colon was more than 100 µM in each case.
With `COC(=O)C(=O)OC1(C(C)=O)CC2(c3ccccc3)OC1(c1ccccc1)c1ccccc12` (stereo not drawn), the TGI in the assay with SN12C renal is 28.6 µM; with UO-31 renal, 29.9 µM; with A498 renal, 33.4 µM; in the assay on OVCAR-3 ovarian, 27.9 µM; in the assay with NCI-H522 lung it was 34.7 µM; in the assay on EKVX NSCLC, 42 µM. Also, the TGI in the assay with CCRF-CEM leukemia is more than 100 µM; in the assay on SW-620 colon it was 30.3 µM; in the assay on HCT-15 colon, 34.1 µM; in the assay with COLO 205 colon it was 29.5 µM.
As to `C#CCC(Cc1cnc2nc(N)nc(N)c2n1)c1ccc(C(=O)N[C@@H](CCC(=O)O)C(=O)O)cc1` (stereo partly drawn), the GI50 was less than 0.01 µM with SN12C renal; less than 0.01 µM in the assay with UO-31 renal; more than 100 µM in the assay on A498 renal; less than 0.0135 µM in the assay with OVCAR-3 ovarian; less than 0.01 µM in the assay with NCI-H522 lung; less than 0.01 µM in the assay with CCRF-CEM leukemia. Besides, the GI50 in the assay with SW-620 colon is less than 0.01 µM; in the assay with HCT-15 colon, less than 0.01 µM; in the assay on COLO 205 colon, less than 0.0159 µM. For the same compound, the TGI in the assay on SN12C renal, with UO-31 renal, in the assay with A498 renal, with OVCAR-3 ovarian, in the assay with NCI-H522 lung and in the assay with EKVX NSCLC was more than 100 µM each time. Also, the TGI with CCRF-CEM leukemia, in the assay with SW-620 colon, in the assay with HCT-15 colon and in the assay with COLO 205 colon was more than 100 µM throughout.
For `CCC(CO)Nc1nc(NCc2ccccc2O)c2ncn(C(C)C)c2n1` (stereo not drawn), the GI50 with SN12C renal was 2.77 µM; in the assay on UO-31 renal it was 0.0777 µM; in the assay on A498 renal, 3.66 µM; with OVCAR-3 ovarian, 3.1 µM; in the assay on NCI-H522 lung, 1.8 µM; with EKVX NSCLC, 15.2 µM. The GI50 in the assay on CCRF-CEM leukemia was 2.21 µM; with SW-620 colon it was 3.34 µM; in the assay with HCT-15 colon, 2.25 µM; in the assay with COLO 205 colon, 1.95 µM. The TGI with SN12C renal is 37.5 µM; in the assay on UO-31 renal, 4.27 µM; in the assay on A498 renal it was 18 µM; with OVCAR-3 ovarian, 19.8 µM; in the assay on NCI-H522 lung, 8.52 µM; with EKVX NSCLC, more than 100 µM. In addition, the TGI with CCRF-CEM leukemia was 9.39 µM; with SW-620 colon it was more than 100 µM; with HCT-15 colon, more than 100 µM; in the assay on COLO 205 colon, 3.89 µM.
For the compound `CC(=O)[C@@]1(O)CC[C@H]2[C@@H]3C[C@H](C)C4=CC(=O)CC[C@]4(C)[C@H]3[C@@H](O)C[C@@]21C`, the TGI in the assay on SN12C renal, with UO-31 renal, with A498 renal, in the assay on OVCAR-3 ovarian, with NCI-H522 lung and in the assay with EKVX NSCLC was more than 100 µM in each case. Besides, the TGI in the assay on CCRF-CEM leukemia, with SW-620 colon, in the assay on HCT-15 colon and in the assay on COLO 205 colon was more than 100 µM each time.
Turning to `CC1(c2cccc3ccccc23)OC(=O)c2ccccc21` (stereo not drawn), the TGI with SN12C renal was 67.8 µM; in the assay on UO-31 renal it was 78.7 µM; with A498 renal it was 68.3 µM; in the assay with OVCAR-3 ovarian, 58.1 µM; in the assay with NCI-H522 lung it was 61.4 µM; in the assay with EKVX NSCLC it was more than 100 µM. In addition, the TGI in the assay on CCRF-CEM leukemia turned out to be 52.3 µM; with SW-620 colon, 68.2 µM; with HCT-15 colon it was 63.7 µM; in the assay with COLO 205 colon it was 29.8 µM.
For `CCCCCCCCCCCCCC(=O)CC(=O)c1c(O)cccc1O`, the TGI in the assay with SN12C renal is more than 100 µM; in the assay on UO-31 renal it was more than 100 µM; in the assay on A498 renal, more than 100 µM; with OVCAR-3 ovarian it was 37.3 µM; with NCI-H522 lung, 59.1 µM; in the assay with EKVX NSCLC, 68.8 µM. Further, the TGI was 41.6 µM in the assay with CCRF-CEM leukemia, 50.2 µM in the assay on SW-620 colon, 58.8 µM with HCT-15 colon and 55.1 µM in the assay on COLO 205 colon.
For `CCCCCC/C=C1\CCC(CN2CCCC2)C1=O` (stereo not drawn), the TGI was 27 µM in the assay with SN12C renal; 33 µM with UO-31 renal; 38.4 µM in the assay with A498 renal; 27.3 µM in the assay with OVCAR-3 ovarian; 3.29 µM with NCI-H522 lung; 34.2 µM in the assay on EKVX NSCLC. In addition, the TGI in the assay on CCRF-CEM leukemia is 20.9 µM; in the assay with SW-620 colon it was more than 59.4 µM; in the assay on HCT-15 colon, 22.8 µM; in the assay with COLO 205 colon it was 36.3 µM.
Turning to `O=c1nc2n(-c3ccc(Cl)cc3)c3ccc([N+](=O)[O-])cc3cc-2c(=O)[nH]1`, the GI50 in the assay with SN12C renal is 14.5 µM; with UO-31 renal it was 20 µM; in the assay on A498 renal, 33.2 µM; in the assay with OVCAR-3 ovarian, 5.57 µM; in the assay with NCI-H522 lung, 22.2 µM; in the assay on EKVX NSCLC, 37.2 µM. Moreover, the GI50 in the assay with CCRF-CEM leukemia is 9.37 µM; in the assay with SW-620 colon, 6.11 µM; with HCT-15 colon, 8.84 µM; with COLO 205 colon it was 13.2 µM. Further, the TGI in the assay on SN12C renal was 44.5 µM; in the assay with UO-31 renal, 53.6 µM; with A498 renal, more than 100 µM; with OVCAR-3 ovarian it was 21.6 µM; in the assay with NCI-H522 lung it was 57.2 µM; with EKVX NSCLC, 82.5 µM. Besides, the TGI in the assay with CCRF-CEM leukemia is more than 100 µM; in the assay on SW-620 colon, more than 100 µM; in the assay with HCT-15 colon, more than 100 µM; in the assay on COLO 205 colon, 31.8 µM.

For the origin of these results see PubChem BioAssay (NCI).
